How the values were obtained:
[1] = simulated intestinal fluid, pH 6.5
[2] = pH 6.5
[3] = simulated gastric fluid, pH 1.8

In the case of `CC[C@H](C)[C@@H]1NC(=O)[C@@H]2CCCN2C(=O)[C@H](CO)NC(=O)[C@H](CCSC)NC(=O)[C@H](C)NC(=O)[C@H](CO)NC(=O)[C@@H]2CSSC[C@H](NC(=O)CN)C(=O)N[C@@H](CSSC[C@@H](C(N)=O)NC1=O)C(=O)N[C@@H](CO)C(=O)N[C@@H](Cc1cnc[nH]1)C(=O)N1CCC[C@H]1C(=O)N[C@@H](C(C)C)C(=O)N2` [TxID, α-Conotoxin TxID], the remaining at 0.5 h [1] is reported as 36.3 ± 2%, the “remaining amount in SIF after 2 h” value [2] is reported as 5.8 ± 2.0% and the remaining at 48 h [3] is reported as 65.2 ± 2%.
